Assay results published in patent publication US10851115B2, “Heterocyclic compounds as RSV inhibitors” (Enanta Pharmaceuticals, Inc., priority 2017, dated 2020).

The compounds below were run on Human RSV-A (“Long” strain) (assay: RSV in vitro cytoprotection assay in HEp-2 cells (ATPlite readout)). Conditions: human respiratory syncytial virus, 96 h; HEp-2 cells, 4-day incubation, ATPlite; read-out: Human RSV-A (“Long” strain) EC50.
Assay type: cell-based
Text: RSV is a single stranded negative sense RNA virus that causes respiratory tract infections which can be dangerous to infants, the elderly, and immunosuppressed individuals. Currently there is no vaccine, and therapeutic options are both costly and of limited effectiveness. These approved treatments are Ribavirin, and Palivizumab/Synagis (a monoclonal antibody). RSV has two genotypes, A and B, which differ primarily in the structure of the virus' surface “G” attachment protein. Our current primary screen focusses on RSV-A and uses an in vitro cytoprotection assay where compounds are added in 2-fold dilutions to cells which are then subjected to fully replicative viral particles. Cell viability is measured several days later along with separate measurements of compound cytotoxicity. This report focuses on the results of our most recent screening of compounds.
HEp-2 cells, (originally derived from tumors grown in irradiated-cortisonised weanling rats that had been injected with epidermoid carcinoma tissue from a person's larynx, but later found to be indistinguishable from HeLa cells by PCR DNA analysis), were used for the culturing of genotype A, “Long” strain RSV. Flasks were inoculated with RSV and viral stocks were collected once cytopathic effect (CPE) was greater than 90%. Viral stocks in 25% sucrose media were snap frozen using liquid nitrogen to increase viral stability. Viral stock titers were quantified by tissue culture infectious dose 50% (TCID50) using 8,000 cells per well and 3-fold viral dilutions across a 96-well plate, cultured for 4 days.
Following extensive parameter testing, the final assay is run as follows: HEp-2 cells are seeded into the inner 60 wells of a 96-well plate at 8,000 cells per well in a volume of 50 μL using Growth Media (DMEM without phenol red, 1% L-Glut, 1% Penn/Strep, 1% nonessential amino acids, 10% FBS). 2-Fold serial dilutions of control and test compounds are added to the wells in duplicate in a total volume of 25 μL. Viral stock is then added to the wells in a volume of 25 μL, bringing the total volume of each well to 100 μL. Each 96-well plate has a control column of 6 wells with cells and virus but no compound (negative control, max CPE), a column with cells but no compound or virus (positive control, minimum CPE), and a column with no cells or virus or compound (background plate/reagent control). The control wells with cells but no virus are given an additional 25 uL of growth media containing an equal quantity of sucrose as those wells receiving the viral stock in order to keep consistent in media and volume conditions. The outer wells of the plate are filled with 125 μL of growth media to act as a thermal and evaporative moat around the test wells. Following a 4-day incubation period, the plates are read using ATPlite (50 uL added per well), which quantifies the amount of ATP (a measure of cell health) present in each well. Assay plates are read using the Envision luminometer. In parallel, cytotoxicity is examined on an additional 96-well plate treated in an identical manner, but substituting the 25 μL of viral stock for 25 μL of growth media. […] EC50 ranges are as follows: A<0.01 μM; B 0.01-0.05 μM; C>0.05 μM.

Row | SMILES | EC50 [nM]
1 | O=C(Nc1c(F)cccc1F)c1cc2c(s1)-c1ccncc1N(C(=O)c1ccc(NC(=O)c3cccnc3N3CC4(CCOCC4)C3)cc1)CC2 [Example 1] | > 50
2 | O=C(Nc1c(F)cccc1Cl)c1cc2c(s1)-c1ccncc1N(C(=O)c1ccc(NC(=O)c3cccnc3N3CC4(CCOCC4)C3)cc1)CC2 [Example 2] | 10 to 50
3 | O=C(Nc1ccc(C(=O)N2CCc3cc(-c4nc5ccccc5[nH]4)sc3-c3ccncc32)cc1)c1cccnc1N1CC2(CCOCC2)C1 [Example 3] | > 50
4 | O=C(Nc1c(F)cccc1F)c1cc2c(s1)-c1ncccc1N(C(=O)c1ccc(NC(=O)c3cccnc3N3CC4(CCOCC4)C3)cc1)CC2 [Example 4] | < 10
5 | O=C(Nc1c(F)cccc1Cl)c1cc2c(s1)-c1ncccc1N(C(=O)c1ccc(NC(=O)c3cccnc3N3CC4(CCOCC4)C3)cc1)CC2 [Example 5] | < 10
6 | O=C(Nc1ccc(C(=O)N2CCc3cc(-c4nc5ccccc5[nH]4)sc3-c3ncccc32)cc1)c1cccnc1N1CC2(CCOCC2)C1 [Example 6] | > 50
7 | Cc1cnc(N2CC3(CCOCC3)C2)c(C(=O)Nc2ccc(C(=O)N3CCc4cc(C(=O)Nc5c(C)cccc5C)sc4-c4ncccc43)cc2)c1 [Example 7] | < 10
8 | Cc1cnc(N2CC3(CCOCC3)C2)c(C(=O)Nc2ccc(C(=O)N3CCc4cc(C(=O)Nc5c(C)cccc5C#N)sc4-c4ncccc43)cc2)c1 [Example 8] | < 10
9 | Cc1cnc(N2CC3(CCOCC3)C2)c(C(=O)Nc2ccc(C(=O)N3CCc4cc(C(=O)Nc5c(F)cccc5F)sc4-c4ncccc43)cc2)c1 [Example 9] | < 10
10 | Cc1cnc(N2CC3(CCOCC3)C2)c(C(=O)Nc2ccc(C(=O)N3CCc4cc(C(=O)Nc5c(F)cc(F)cc5F)sc4-c4ncccc43)cc2)c1 [Example 10] | < 10
11 | Cc1cnc(N2CC3(CCOCC3)C2)c(C(=O)Nc2ccc(C(=O)N3CCc4cc(C(=O)Nc5c(C)cccc5F)sc4-c4ncccc43)cc2)c1 [Example 11] | < 10
12 | Cc1cnc(N2CC3(CCOCC3)C2)c(C(=O)Nc2ccc(C(=O)N3CCc4cc(C(=O)Nc5c(Cl)cccc5Cl)sc4-c4ncccc43)cc2)c1 [Example 12] | < 10
13 | Cc1cnc(N2CC3(CCOCC3)C2)c(C(=O)Nc2ccc(C(=O)N3CCc4cc(C(=O)Nc5ncccn5)sc4-c4ncccc43)cc2)c1 [Example 14] | 10 to 50
14 | Cc1cnc(N2CC3(CCOCC3)C2)c(C(=O)Nc2ccc(C(=O)N3CCc4cc(C(=O)Nc5ncccc5F)sc4-c4ncccc43)cc2)c1 [Example 15] | < 10
15 | Cc1cnc(N2CC3(CCOCC3)C2)c(C(=O)Nc2ccc(C(=O)N3CCc4cc(C(=O)Nc5ncc(C)s5)sc4-c4ncccc43)cc2)c1 [Example 16] | < 10
16 | Cc1cnc(N2CC3(CCOCC3)C2)c(C(=O)Nc2ccc(C(=O)N3CCc4cc(C(=O)N[C@@H]5CCOC5)sc4-c4ncccc43)cc2)c1 [Example 17] | 10 to 50
17 | Cc1cnc(N2CC3(CCOCC3)C2)c(C(=O)Nc2ccc(C(=O)N3CCc4cc(C(=O)N[C@H]5CCOC5)sc4-c4ncccc43)cc2)c1 [Example 18] | 10 to 50
18 | Cc1cnc(N2CC3(CCOCC3)C2)c(C(=O)Nc2ccc(C(=O)N3CCc4cc(C(=O)Nc5ccccn5)sc4-c4ncccc43)cc2)c1 [Example 19] | < 10
19 | Cc1cnc(N2CC3(CCOCC3)C2)c(C(=O)Nc2ccc(C(=O)N3CCc4cc(C(=O)Nc5cccnc5)sc4-c4ncccc43)cc2)c1 [Example 20] | < 10
20 | Cc1cnc(N2CC3(CCOCC3)C2)c(C(=O)Nc2ccc(C(=O)N3CCc4cc(C(=O)Nc5ccncc5)sc4-c4ncccc43)cc2)c1 [Example 21] | < 10
21 | Cc1cnc(N2CC3(CCOCC3)C2)c(C(=O)Nc2ccc(C(=O)N3CCc4cc(C(=O)Nc5ncccc5C)sc4-c4ncccc43)cc2)c1 [Example 22] | < 10
22 | Cc1cnc(N2CC3(CCOCC3)C2)c(C(=O)Nc2ccc(C(=O)N3CCc4cc(C(=O)Nc5cccc(C)n5)sc4-c4ncccc43)cc2)c1 [Example 23] | < 10
23 | Cc1cnc(N2CC3(CCOCC3)C2)c(C(=O)Nc2ccc(C(=O)N3CCc4cc(C(=O)NCc5ccco5)sc4-c4ncccc43)cc2)c1 [Example 24] | < 10

Row | SMILES | EC50 [nM]
24 | COCC1(NC(=O)c2cc3c(s2)-c2ncccc2N(C(=O)c2ccc(NC(=O)c4cc(C)cnc4N4CC5(CCOCC5)C4)cc2)CC3)CCC1 [Example 25] | < 10
25 | Cc1cnc(N2CC3(CCOCC3)C2)c(C(=O)Nc2ccc(C(=O)N3CCc4cc(C(=O)NCc5ccccn5)sc4-c4ncccc43)cc2)c1 [Example 26] | < 10
26 | Cc1cnc(N2CC3(CCOCC3)C2)c(C(=O)Nc2ccc(C(=O)N3CCc4cc(C(=O)NC5CCOCC5)sc4-c4ncccc43)cc2)c1 [Example 27] | < 10
27 | Cc1cnc(N2CC3(CCOCC3)C2)c(C(=O)Nc2ccc(C(=O)N3CCc4cc(C(=O)NC[C@H]5CCCO5)sc4-c4ncccc43)cc2)c1 [Example 28] | < 10
28 | Cc1cnc(N2CC3(CCOCC3)C2)c(C(=O)Nc2ccc(C(=O)N3CCc4cc(C(=O)NCC5CCCO5)sc4-c4ncccc43)cc2)c1 (stereo not shown) [Example 29] | < 10
29 | Cc1cnc(N2CC3(CCOCC3)C2)c(C(=O)Nc2ccc(C(=O)N3CCc4cc(C(=O)Nc5ncco5)sc4-c4ncccc43)cc2)c1 [Example 30] | 10 to 50
30 | Cc1cnc(N2CC3(CCOCC3)C2)c(C(=O)Nc2ccc(C(=O)N3CCc4cc(C(=O)Nc5cccnn5)sc4-c4ncccc43)cc2)c1 [Example 31] | < 10
31 | Cc1cnc(N2CC3(CCOCC3)C2)c(C(=O)Nc2ccc(C(=O)N3CCc4cc(C(=O)Nc5cccnc5C)sc4-c4ncccc43)cc2)c1 [Example 32] | < 10
32 | Cc1cnc(N2CC3(CCOCC3)C2)c(C(=O)Nc2ccc(C(=O)N3CCc4cc(C(=O)Nc5cnccc5C)sc4-c4ncccc43)cc2)c1 [Example 33] | < 10
33 | Cc1cnc(N2CC3(CCOCC3)C2)c(C(=O)Nc2ccc(C(=O)N3CCc4cc(C(=O)Nc5ccncc5C)sc4-c4ncccc43)cc2)c1 [Example 34] | < 10
34 | Cc1cnc(N2CC3(CCOCC3)C2)c(C(=O)Nc2ccc(C(=O)N3CCc4cc(C(=O)Nc5nccs5)sc4-c4ncccc43)cc2)c1 [Example 35] | < 10
35 | Cc1cnc(N2CC3(CCOCC3)C2)c(C(=O)Nc2ccc(C(=O)N3CCc4cc(C(=O)NCc5cccnc5)sc4-c4ncccc43)cc2)c1 [Example 36] | 10 to 50
36 | Cc1cnc(N2CC3(CCOCC3)C2)c(C(=O)Nc2ccc(C(=O)N3CCc4cc(C(=O)Nc5c(Cl)cncc5Cl)sc4-c4ncccc43)cc2)c1 [Example 37] | < 10
37 | Cc1cnc(N2CC3(CCOCC3)C2)c(C(=O)Nc2ccc(C(=O)N3CCc4cc(-c5nc6ccccc6[nH]5)sc4-c4ncccc43)cc2)c1 [Example 38] | 10 to 50
38 | Cc1ccc(C(=O)Nc2ccc(C(=O)N3CCc4cc(C(=O)Nc5c(F)cccc5F)sc4-c4ncccc43)cc2)c(N2CC3(CCOCC3)C2)n1 [Example 39] | < 10
39 | Cc1ccc(C(=O)Nc2ccc(C(=O)N3CCc4cc(C(=O)Nc5c(F)cc(F)cc5F)sc4-c4ncccc43)cc2)c(N2CC3(CCOCC3)C2)n1 [Example 40] | < 10
40 | Cc1ccc(C(=O)Nc2ccc(C(=O)N3CCc4cc(C(=O)Nc5c(C)cccc5F)sc4-c4ncccc43)cc2)c(N2CC3(CCOCC3)C2)n1 [Example 41] | < 10
41 | Cc1ccc(C(=O)Nc2ccc(C(=O)N3CCc4cc(-c5nc6ccccc6[nH]5)sc4-c4ncccc43)cc2)c(N2CC3(CCOCC3)C2)n1 [Example 42] | < 10
42 | Cc1ccc(C(=O)Nc2ccc(C(=O)N3CCc4cc(-c5nc6cccc(Cl)c6[nH]5)sc4-c4ncccc43)cc2)c(N2CC3(CCOCC3)C2)n1 [Example 43] | 10 to 50
43 | Cc1ccc(C(=O)Nc2ccc(C(=O)N3CCc4cc(C(=O)Nc5c(F)cccc5Cl)sc4-c4ncccc43)cc2)c(N2CC3(CCOCC3)C2)n1 [Example 44] | < 10
44 | Cc1ccc(C(=O)Nc2ccc(C(=O)N3CCc4cc(C(=O)Nc5c(F)cccc5C(F)(F)F)sc4-c4ncccc43)cc2)c(N2CC3(CCOCC3)C2)n1 [Example 45] | < 10
45 | Cc1ccc(C(=O)Nc2ccc(C(=O)N3CCc4cc(-c5nc6cccc(F)c6[nH]5)sc4-c4ncccc43)cc2)c(N2CC3(CCOCC3)C2)n1 [Example 46] | < 10
46 | Cc1cnc(N2CC3(CCOCC3)C2)c(C(=O)Nc2ccc(C(=O)N3CCc4cc(C(=O)Nc5c(F)cccc5F)sc4-c4ncccc43)cc2F)c1 [Example 47] | 10 to 50
